Laboratory results published in ChEMBL document CHEMBL4118136, “The photodynamic activity of 131-[2'-(2-pyridyl)ethylamine] chlorin e6 photosensitizer in human esophageal cancer” (Bioorg Med Chem Lett, 2018).
Blank lines part the entries; values can stand above or below the compound they belong to. Active and inactive are the calls of the source. The calls are words filed in the database; no cut-off is given here.

What was measured:
[1] = test system: ECa-109 cell line; test: Antitumor activity against human ECA109 cells xenografted in Balb/C nude mouse assessed as inhibition of tumor growth at 2 mg/kg, iv followed by irradiation at 100 J/cm2 and measured after 13 days relative to untreated control; format: functional; conditions: ECa-109, light or radiation study, 312 h, read-out: TGI
[2] = test system: ECa-109 cell line; test: Antitumor activity against human ECA109 cells xenografted in Balb/C nude mouse assessed as reduction in tumor cell per unit area at 2 mg/kg, iv followed by irradiation at 100 J/cm2 and measured after 13 days by hematoxylin-eosin staining based light microscopy relative to untreated control; format: functional, organism-based
[3] = test system: ECa-109 cell line; test: Induction of apoptosis in human ECA109 cells assessed as late apoptotic cells level in absence of irradiation by Annexin V and propidium iodide staining based flow cytometry (reference value: 0.01%); format: cell-based
[4] = test system: ECa-109 cell line; test: Induction of apoptosis in human ECA109 cells assessed as late apoptosis cells level measured 8 hrs after 2 J/cm2 irradiation by Annexin V and propidium iodide staining based flow cytometry (reference value: 0.01%); format: functional
[5] = test system: ECa-109 cell line; test: Antitumor activity against human ECA109 cells xenografted in Balb/C nude mouse assessed as increase in nuclear fission level at 2 mg/kg, iv followed by irradiation at 100 J/cm2 and measured after 13 days by hematoxylin-eosin staining based light microscopy relative to untreated control; format: functional, organism-based
[6] = test system: ECa-109 cell line; test: Cytotoxicity in human ECA109 cells assessed as reduction in cell viability incubated for 24 hrs followed by irradiation with 2 J/cm2 red light by MTT assay; format: functional, cell-based; conditions: ECa-109, light or radiation study
[7] = Induction of singlet oxygen generation assessed as DPBF chemical oxidation in DMF solution incubated for 10 to 30 secs under irradiation by UV-Vis spectrophotometry relative to mTHPC; format: functional
[8] = test system: ECa-109 cell line; test: Induction of apoptosis in human ECA109 cells assessed as necrosis cells level measured 4 hrs after 2 J/cm2 irradiation by Annexin V and propidium iodide staining based flow cytometry; format: functional
[9] = Drug accumulation in lysosome of human ECA109 cells at 0.9 uM incubated for 4 hrs by Lyso tracker blue green dye based confocal microscopy; format: ADME, subcellular; conditions: eca-109, 4 h
[10] = Induction of singlet oxygen generation assessed as singlet oxygen quantum yield by measuring DPBF chemical oxidation in DMF solution incubated for 10 to 30 secs under irradiation by UV-Vis spectrophotometry; format: functional
[11] = test system: ECa-109 cell line; test: Induction of apoptosis in human ECA109 cells assessed as viable cells level measured 2 hrs after 2 J/cm2 irradiation by Annexin V and propidium iodide staining based flow cytometry (reference value: 99.99%); format: functional
[12] = test system: ECa-109 cell line; test: Cytotoxicity in human ECA109 cells assessed as reduction in cell viability incubated for 24 hrs followed by irradiation with 1 J/cm2 red light by MTT assay; format: functional, cell-based; conditions: ECa-109, light or radiation study
[13] = test system: ECa-109 cell line; test: Induction of apoptosis in human ECA109 cells assessed as early apoptosis cells level measured 8 hrs after 2 J/cm2 irradiation by Annexin V and propidium iodide staining based flow cytometry; format: functional
[14] = test system: ECa-109 cell line; test: Cytotoxicity in human ECA109 cells assessed as reduction in cell viability incubated for 24 hrs followed by irradiation with 0.5 to 2.5 J/cm2 red light by MTT assay; format: functional, cell-based
[15] = Drug accumulation in mitochondria of human ECA109 cells at 0.9 uM incubated for 4 hrs by mitotracker green dye based confocal microscopy; format: ADME; conditions: eca-109, 4 h
[16] = test system: ECa-109 cell line; test: Cytotoxicity in human ECA109 cells assessed as reduction in cell viability incubated for 24 hrs followed by irradiation with 2.5 J/cm2 red light by MTT assay; format: functional, cell-based; conditions: ECa-109, light or radiation study
[17] = Drug accumulation in endoplasmic reticulum of human ECA109 cells at 0.9 uM incubated for 4 hrs by ER-green[DiOC6(3)] dye based confocal microscopy; format: ADME, subcellular; conditions: eca-109, 4 h
[18] = test system: ECa-109 cell line; test: Cytotoxicity in human ECA109 cells assessed as reduction in cell viability incubated for 24 hrs followed by irradiation with 1.5 J/cm2 red light by MTT assay; format: functional, cell-based; conditions: ECa-109, light or radiation study
[19] = test system: ECa-109 cell line; test: Induction of apoptosis in human ECA109 cells xenografted in Balb/C nude mouse at 2 mg/kg, iv followed by irradiation at 100 J/cm2 and measured after 13 days by TUNEL staining based light microscopy relative to untreated control; format: functional
[20] = test system: ECa-109 cell line; test: Induction of apoptosis in human ECA109 cells assessed as necrotic cells level in absence of irradiation by Annexin V and propidium iodide staining based flow cytometry; format: cell-based
[21] = test system: ECa-109 cell line; test: Induction of apoptosis in human ECA109 cells assessed as early apoptosis cells level measured 2 hrs after 2 J/cm2 irradiation by Annexin V and propidium iodide staining based flow cytometry; format: functional
[22] = test system: ECa-109 cell line; test: Antitumor activity against human ECA109 cells xenografted in Balb/C nude mouse assessed as increase in megakaryocytes level at 2 mg/kg, iv followed by irradiation at 100 J/cm2 and measured after 13 days by hematoxylin-eosin staining based light microscopy relative to untreated control; format: functional, organism-based
[23] = test system: ECa-109 cell line; test: Induction of apoptosis in human ECA109 cells assessed as necrosis cells level measured 2 hrs after 2 J/cm2 irradiation by Annexin V and propidium iodide staining based flow cytometry; format: functional
[24] = test system: ECa-109 cell line; test: Induction of apoptosis in human ECA109 cells assessed as reduction in pro-caspase-3 activity measured 2 hrs after 2 J/cm2 irradiation; format: functional, cell-based
[25] = test system: ECa-109 cell line; test: Induction of apoptosis in human ECA109 cells assessed as late apoptosis cells level measured 2 hrs after 2 J/cm2 irradiation by Annexin V and propidium iodide staining based flow cytometry (reference value: 0.01%); format: functional
[26] = test system: ECa-109 cell line; test: Induction of apoptosis in human ECA109 cells assessed as early apoptosis cells level measured 4 hrs after 2 J/cm2 irradiation by Annexin V and propidium iodide staining based flow cytometry; format: functional
[27] = test system: ECa-109 cell line; test: Induction of apoptosis in human ECA109 cells assessed as viable cells level measured 8 hrs after 2 J/cm2 irradiation by Annexin V and propidium iodide staining based flow cytometry (reference value: 99.99%); format: functional
[28] = test system: ECa-109 cell line; test: Induction of apoptosis in human ECA109 cells assessed as late apoptosis cells level measured 4 hrs after 2 J/cm2 irradiation by Annexin V and propidium iodide staining based flow cytometry (reference value: 0.01%); format: functional
[29] = Induction of apoptosis in human ECA109 cells assessed as viable cells level in absence of irradiation by Annexin V and propidium iodide staining based flow cytometry (reference value: 99.99%); format: cell-based, ECa-109; conditions: read-out: Activity
[30] = test system: ECa-109 cell line; test: Antitumor activity against human ECA109 cells xenografted in Balb/C nude mouse assessed as increase in cell differentiation at 2 mg/kg, iv followed by irradiation at 100 J/cm2 and measured after 13 days by hematoxylin-eosin staining based light microscopy relative to untreated control; format: functional, organism-based
[31] = test system: ECa-109 cell line; test: Cytotoxicity in human ECA109 cells assessed as reduction in cell viability incubated for 24 hrs followed by irradiation with 0.5 J/cm2 red light by MTT assay; format: functional, cell-based; conditions: ECa-109, light or radiation study
[32] = Induction of singlet oxygen generation assessed as DPBF chemical oxidation in DMF solution incubated for 10 to 30 secs under irradiation by UV-Vis spectrophotometry; format: functional; conditions: TDE = time-dependent effect
[33] = Dark toxicity in human ECA109 cells assessed as reduction in cell viability at 0.1 to 0.9 uM incubated for 24 hrs under dark conditions by MTT assay; format: cell-based; conditions: eca-109, 24 h
[34] = test system: ECa-109 cell line; test: Induction of apoptosis in human ECA109 cells assessed as early apoptotic cells level in absence of irradiation by Annexin V and propidium iodide staining based flow cytometry; format: cell-based
[35] = test system: ECa-109 cell line; test: Induction of apoptosis in human ECA109 cells assessed as necrosis cells level measured 8 hrs after 2 J/cm2 irradiation by Annexin V and propidium iodide staining based flow cytometry; format: functional
[36] = test system: ECa-109 cell line; test: Induction of apoptosis in human ECA109 cells assessed as viable cells level measured 4 hrs after 2 J/cm2 irradiation by Annexin V and propidium iodide staining based flow cytometry (reference value: 99.99%); format: functional
[37] = Drug uptake in human ECA109 cells at 0.5 uM incubated for 2 to 24 hrs by fluorescence spectrometry; format: ADME, cell-based; conditions: eca-109, 0.5 µM, TDE = time-dependent effect

SMILES: Oc1cccc(-c2c3nc(c(-c4cccc(O)c4)c4ccc([nH]4)c(-c4cccc(O)c4)c4nc(c(-c5cccc(O)c5)c5ccc2[nH]5)CC4)C=C3)c1 [TEMOPORFIN]
inhibition in vivo at 2 mg/kg [1]: 79%

Drug uptake [9]: Active
Drug uptake [15]: Active
Drug uptake [17]: Active
Drug uptake [37]: Tde
SMILES: C=Cc1c(C)c2cc3nc(c(CC(=O)OC)c4[nH]c(cc5nc(cc1[nH]2)C(C)=C5CC)c(C)c4C(=O)NCCc1ccccn1)[C@@H](CCC(=O)OC)[C@@H]3C
Activity [2]: Active
Activity [3]: 4.7%
Activity [4]: 85.78%
Activity [5]: Active
IC50 [6]: 380 nM
fold change (FC) [7]: 0.0193
Activity [8]: 7.87%
Activity index [10]: 0.98
Activity [11]: 15.19%
IC50 [12]: 640 nM
Activity [13]: 6.01%
Activity [14]: Dose-dependent effect
IC50 [16]: 300 nM
IC50 [18]: 430 nM
Activity [19]: 40%
Activity [20]: 2.3%
Activity [21]: 7.15%
Activity [22]: Active
Activity [23]: 9.33%
Activity [24]: Active
Activity [25]: 68.34%
Activity [26]: 8.1%
Activity [27]: 4.92%
Activity [28]: 70.93%
viability [29]: 89.8%
Activity [30]: Active
IC50 [31]: 1330 nM
Activity [32]: Tde
Activity [33]: Non-Toxic
Activity [34]: 3.16%
Activity [35]: 3.29%
Activity [36]: 13.1%
inhibition in vivo at 2 mg/kg [1]: 92%
